According to patent publication US20050209278A1, “Piperidinyl- and piperazinyl-sulfonylmethyl hydroxamic acids and their use as protease inhibitors” (priority 2002, published 2005):
Read-outs that look alike come from different tables or passages of the source.

Tests used:
MMP-9 = molecular target: T1, MMP-9 (Homo sapiens, UniProt P14780); assay: In vitro MMP inhibition, Ki determination (fluorogenic substrate II); format: biochemical
T1 construct: made in house; host or cells: MMP-9-transfected HT1080 cells (spent media)
Method in brief: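 HT1080-derived MMP-9, activated with APMA, trypsin or MMP-3, incubated 1 hr at room temperature with inhibitor and 4 μM fluorogenic substrate II (at or below Km) in pH 7.5 Tris/NaCl/CaCl2 buffer; ex 330/em 420 nm. Ki from Morrison-equation regression, without substrate correction.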

MMP-14 = molecular target: T2, MMP-14 (Homo sapiens, UniProt P50281); assay: as above; format: biochemical; conditions: read-out: MMP-14 Ki
T2 construct: The catalytic domain enzyme was expressed in E. coli inclusion bodies, solubilized in urea; made in house
Method in brief: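 Apparent Ki was fitted with Morrison's equation from reaction rates at a single low enzyme level. Enzyme was APMA- or trypsin-activated refolded MMP-14 catalytic domain, buffered at pH 7.5 with 10 mM CaCl2.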

T1 sequence (P14780 107-707 limits assumed): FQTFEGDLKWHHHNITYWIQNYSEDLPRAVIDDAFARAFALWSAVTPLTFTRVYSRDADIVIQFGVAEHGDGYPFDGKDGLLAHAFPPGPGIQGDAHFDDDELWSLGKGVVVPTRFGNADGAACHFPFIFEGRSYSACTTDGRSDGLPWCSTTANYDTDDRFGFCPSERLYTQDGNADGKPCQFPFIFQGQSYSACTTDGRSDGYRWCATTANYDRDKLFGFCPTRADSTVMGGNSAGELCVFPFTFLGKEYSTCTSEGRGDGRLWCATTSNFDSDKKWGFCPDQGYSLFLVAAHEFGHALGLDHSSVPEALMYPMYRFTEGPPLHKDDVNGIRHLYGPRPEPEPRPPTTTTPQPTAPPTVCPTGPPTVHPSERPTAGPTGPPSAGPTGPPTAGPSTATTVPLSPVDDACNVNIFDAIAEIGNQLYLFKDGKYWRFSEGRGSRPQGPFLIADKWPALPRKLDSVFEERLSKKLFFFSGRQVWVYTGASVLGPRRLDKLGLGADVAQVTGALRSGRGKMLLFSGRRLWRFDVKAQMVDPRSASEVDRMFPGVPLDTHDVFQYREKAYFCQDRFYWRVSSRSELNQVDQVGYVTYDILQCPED

Structure (SMILES)	Ki (MMP-9; value outside parentheses) [nM]	Ki (MMP-14; value outside parentheses) [nM]	Ki (MMP-9; value not in parenthesis) [nM]	Ki (MMP-14; value not in parenthesis) [nM]
Cc1ccc(-c2csc(N3CCN(S(=O)(=O)C4(C(=O)NO)CCOCC4)CC3)n2)cc1 [Example 412]	> 10000	> 10000		
O=C(NO)C1(S(=O)(=O)N2CCN(c3ccc(-c4nn[nH]n4)cc3)CC2)CCOCC1 [Example 419]	112	> 10000		
O=C(NO)C1(S(=O)(=O)N2CCC(c3ccc(-c4cccc(F)c4)cn3)CC2)CCOCC1 [Example 417]	4.1	1300		
O=C(NO)C1(S(=O)(=O)N2CCC(c3ccc(-c4cccs4)c(F)c3)CC2)CCOCC1 [Example 407]	1.9	3030		
O=C(NO)C1(S(=O)(=O)N2CCC(c3ccc(N4CCCC4)cn3)CC2)CCOCC1 [Example 408]	10.2	1050		
N#Cc1ccc(-c2cnc(N3CCN(S(=O)(=O)C4(C(=O)NO)CCOCC4)CC3)s2)cc1 [Example 399]	0.57	9.69		
O=C(NO)C1(S(=O)(=O)N2CCC(c3ccc(-c4ccccn4)cn3)CC2)CCOCC1 [Example 409]	13.6	1770		
O=C(NO)C1(S(=O)(=O)N2CCC(COCc3ccc(SC(F)(F)F)cc3)CC2)CCOCC1 [Example 405]	3.39	95.7		
Cc1cccc(-c2csc(N3CCN(S(=O)(=O)C4(C(=O)NO)CCOCC4)CC3)n2)c1 [Example 413]	> 10000	> 10000		
O=C(NO)C1(S(=O)(=O)N2CCN(c3ncc(-c4ccc(Cl)cc4)cn3)CC2)CCOCC1 [Example 66]			0.52	1120
O=C(NO)C1(S(=O)(=O)N2CCN(c3nc(-c4ccccc4)cs3)CC2)CCOCC1 [Example 415]	> 10000	> 10000		
O=C(NO)C1(S(=O)(=O)N2CCC(COCc3ccc(OC(F)(F)F)cc3)CC2)CCOCC1 [Example 404]	2.29	71.8		
O=C(NO)C1(S(=O)(=O)N2CCC(c3ccc(OCc4ccccc4)cn3)CC2)CCOCC1 [Example 398]	5.67	514		

Other lines, results leading:

Ki (MMP-9; value outside parentheses) [nM]	Ki (MMP-14; value outside parentheses) [nM]	Ki (MMP-9; value not in parenthesis) [nM]	Ki (MMP-14; value not in parenthesis) [nM]	Structure (SMILES)
0.09	2920			CCCCc1ccc(C2CCN(S(=O)(=O)C3(C(=O)NO)CCN(CCOC)CC3)CC2)nc1 [Example 397]
4.22	2720			CCCCCC/C=C\C1CCN(S(=O)(=O)C2(C(=O)NO)CCOCC2)CC1 [Example 401]
		0.16	534	CCCCc1ccc(N2CCN(S(=O)(=O)C3(C(=O)NO)CCOCC3)CC2)nc1 [Example 168]
		0.74	1660	CCCCc1cnc(N2CCN(S(=O)(=O)C3(C(=O)NO)CCOCC3)CC2)nc1 [Example 105]
7.37	129			O=C(NO)C1(S(=O)(=O)N2CCC(COCc3ccc(C(F)(F)F)cc3)CC2)CCOCC1 [Example 403]
0.55	1360			CCCCOc1ccc(C2CCN(S(=O)(=O)C3(C(=O)NO)CCOCC3)CC2)nc1 [Example 410]
1.49	506			Cc1ccc(-c2ccc(C3CCN(S(=O)(=O)C4(C(=O)NO)CCOCC4)CC3)nc2)s1 [Example 416]
1.86	5360			O=C(NO)C1(S(=O)(=O)N2CCC(c3ccc(OCCC(F)(F)F)cn3)CC2)CCOCC1 [Example 418]
2.04	> 10000			CCC(F)(F)CCc1ccc(C2CCN(S(=O)(=O)C3(C(=O)NO)CCOCC3)CC2)cn1 [Example 411]
4.86	194			CCc1ccc(-c2ccc(C3CCN(S(=O)(=O)C4(C(=O)NO)CCOCC4)CC3)nc2)cc1 [Example 393]
0.76	1190			CCCCCCCOC1CCN(S(=O)(=O)C2(C(=O)NO)CCOCC2)CC1 [Example 406]
1.4	724			CCCC#Cc1cnc(N2CCN(S(=O)(=O)C3(C(=O)NO)CCOCC3)CC2)s1 [Example 400]
0.19				CCCCCC/C=C/C1CCN(S(=O)(=O)C2(C(=O)NO)CCOCC2)CC1 [Example 402]
80.3	> 10000			CCCCc1ccc(C2(O)CCN(S(=O)(=O)C3(C(=O)NO)CCOCC3)CC2)nc1 [Example 420]
